Patent publication US11111251B2, “Positive allosteric modulators of the muscarinic acetylcholine receptor M1” (Vanderbilt University, priority 2016, dated 2021)

Biological target: T1, human mAChR M1 (Homo sapiens, UniProt P11229)
T1 sequence (P11229 1-460): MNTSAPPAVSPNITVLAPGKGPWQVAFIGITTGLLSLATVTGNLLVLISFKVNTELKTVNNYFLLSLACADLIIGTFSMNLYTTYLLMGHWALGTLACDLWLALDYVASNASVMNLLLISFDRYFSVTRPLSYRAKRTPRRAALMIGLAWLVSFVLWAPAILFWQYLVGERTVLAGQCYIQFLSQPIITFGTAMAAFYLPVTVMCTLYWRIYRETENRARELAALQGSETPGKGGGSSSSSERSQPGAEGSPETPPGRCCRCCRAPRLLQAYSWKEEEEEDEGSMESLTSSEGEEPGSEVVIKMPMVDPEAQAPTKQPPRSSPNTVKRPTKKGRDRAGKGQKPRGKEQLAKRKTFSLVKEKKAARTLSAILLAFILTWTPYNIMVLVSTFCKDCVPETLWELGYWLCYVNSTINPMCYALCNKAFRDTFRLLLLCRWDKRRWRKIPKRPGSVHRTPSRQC
Experiment: mAChR M1 cell-based functional assay: calcium mobilization, positive allosteric modulator mode (increase in EC20 acetylcholine response)
Conditions: Table 2, human M1; for EC50: read-out: Human M1 EC50; for Emax: read-out: Human M1 Emax (%)
In short: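 Calcium-flux assay in CHO-K1 cells stably expressing human M1, loaded with Fluo-4 AM (50 min, 37 °C) and read at 1 Hz. Compound (11-point, 1:3 series) was added at 4 s, EC20 acetylcholine at 144 s and EC80 at 230 s. PAM activity is the concentration-dependent rise in the EC20 response, fitted with a four-parameter logistic.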

| EC50 [nM] | Emax [%] | Compound |
| --- | --- | --- |
| 3610 | 68.5 | Cc1nc(-c2ccc(Cc3cc(C(=O)N[C@H]4CCOC4)nc4ccsc34)cc2)cs1 [Compound 184, 7-[[4-(2-methylthiazol-4-yl)phenyl]methyl]-N-[(3S)-tetrahydrofuran-3-yl]thieno[3,2-b]pyridine-5-carboxamide] |
| 4230 | 52.1 | Cc1nc(-c2ccc(Cc3cc(C(=O)NC4CCCCC4)nc4ccsc34)cc2)cs1 [Compound 185, N-cyclohexyl-7-[[4-(2-methylthiazol-4-yl)phenyl]methyl]thieno[3,2-b]pyridine-5-carboxamide] |
| 3290 | 74.2 | Cc1nc(-c2ccc(Cc3cc(C(=O)NC4CCCN(C)C4)nc4ccsc34)cc2)cs1 (stereo not drawn) [Compound 186, N-(1-methyl-3-piperidyl)-7-[[4-(2-methylthiazol-4-yl)phenyl]methyl]thieno[3,2-b]pyridine-5-carboxamide] |
| 3200 | 72.1 | Cc1nc(-c2ccc(Cc3cc(C(=O)NC4CCN(C)CC4)nc4ccsc34)cc2)cs1 [Compound 187, N-(1-methyl-4-piperidyl)-7-[[4-(2-methylthiazol-4-yl)phenyl]methyl]thieno[3,2-b]pyridine-5-carboxamide] |
| 1790 | 83.2 | Cc1nc(-c2ccc(Cc3cc(C(=O)N[C@@H]4CCCOC4)nc4ccsc34)cc2)cs1 [Compound 188, 7-[[4-(2-methylthiazol-4-yl)phenyl]methyl]-N-[(3R)-tetrahydropyran-3-yl]thieno[3,2-b]pyridine-5-carboxamide] |
| 6270 | 72 | Cc1nc(-c2ccc(Cc3cc(C(=O)N[C@H]4CCCOC4)nc4ccsc34)cc2)cs1 [Compound 189, 7-[[4-(2-methylthiazol-4-yl)phenyl]methyl]-N-[(3S)-tetrahydropyran-3-yl]thieno[3,2-b]pyridine-5-carboxamide] |
| 6140 | 75.5 | Cc1nc(-c2ccc(Cc3cc(C(=O)N(C)C4CCOCC4)nc4ccsc34)cc2)cs1 [Compound 190] |
| 247 | 86.9 | Cc1nc(-c2ccc(Cc3cc(C(=O)NC4CCOCC4)nc4ccsc34)cc2)cs1 [Compound 191, 7-[[4-(2-methylthiazol-4-yl)phenyl]methyl]-N-tetrahydropyran-4-yl-thieno[3,2-b]pyridine-5-carboxamide] |
| 15.3 | 78.7 | Cc1nc(-c2ccc(Cc3cc(C(=O)N[C@H]4CCOC[C@@H]4O)nc4ccsc34)cc2)cs1 [Compound 192, N-[(3R,4S)-3-hydroxytetrahydropyran-4-yl]-7-[[4-(2-methylthiazol-4-yl)phenyl]methyl]thieno[3,2-b]pyridine-5-carboxamide] |
| 31.1 | 85.7 | Cc1nc(-c2ccc(Cc3cc(C(=O)N[C@H]4COCC[C@@H]4O)nc4ccsc34)cc2)cs1 [Compound 193, N-[(3S,4S)-4-hydroxytetrahydropyran-3-yl]-7-[[4-(2-methylthiazol-4-yl)phenyl]methyl]thieno[3,2-b]pyridine-5-carboxamide] |
| 59.6 | 80.7 | Cc1nc(-c2ccc(Cc3cc(C(=O)N[C@H]4CCCC[C@@H]4O)nc4ccsc34)cc2)cs1 [Compound 194, N-[(1S,2S)-2-hydroxycyclohexyl]-7-[[4-(2-methylthiazol-4-yl)phenyl]methyl]thieno[3,2-b]pyridine-5-carboxamide] |
| 2390 | 81.8 | CO[C@H]1CCCC[C@@H]1NC(=O)c1cc(Cc2ccc(-c3csc(C)n3)cc2)c2sccc2n1 [Compound 195, N-[(1S,2S)-2-methoxycyclohexyl]-7-[[4-(2-methylthiazol-4-yl)phenyl]methyl]thieno[3,2-b]pyridine-5-carboxamide] |
| 234 | 81.3 | Cc1nc(-c2ccc(Cc3cc(C(=O)N[C@H]4CCCCC[C@@H]4O)nc4ccsc34)cc2)cs1 [Compound 196, N-[(1S,2S)-2-hydroxycycloheptyl]-7-[[4-(2-methylthiazol-4-yl)phenyl]methyl]thieno[3,2-b]pyridine-5-carboxamide] |
| 1380 | 80.8 | Cc1nc(-c2ccc(Cc3cc(C(=O)NC4CCN5CCCC45)nc4ccsc34)cc2)cs1 (stereo not drawn) [Compound 197, N-(hexahydro-1H-pyrrolizin-1-yl)-7-[[4-(2-methylthiazol-4-yl)phenyl]methyl]thieno[3,2-b]pyridine-5-carboxamide] |
| 484 | 90 | Cc1nc(-c2ccc(Cc3cc(C(=O)NC4CCCNC4=O)nc4ccsc34)cc2)cs1 (stereo not drawn) [Compound 198, 7-[[4-(2-methylthiazol-4-yl)phenyl]methyl]-N-(2-oxo-3-piperidyl)thieno[3,2-b]pyridine-5-carboxamide] |
| 1420 | 88.1 | Cc1nc(-c2ccc(Cc3cc(C(=O)NC4CCCCNC4=O)nc4ccsc34)cc2)cs1 (stereo not drawn) [Compound 199, 7-[[4-(2-methylthiazol-4-yl)phenyl]methyl]-N-(2-oxoazepan-3-yl)thieno[3,2-b]pyridine-5-carboxamide] |
| 116 | 89.4 | O=C(N[C@@H]1CC[C@H]1O)c1cc(Cc2ccc(-c3cscn3)cc2)c2sccc2n1 [Compound 200, N-[(1R,2R)-2-hydroxycyclobutyl]-7-[(4-thiazol-4-ylphenyl)methyl]thieno[3,2-b]pyridine-5-carboxamide] |
| > 10000 | 38.5 | O=C(NC12CC(C1)C2)c1cc(Cc2ccc(-c3cscn3)cc2)c2sccc2n1 [Compound 201, N-(3-bicyclo[1.1.1]pentanyl)-7-[(4-thiazol-4-ylphenyl)methyl]thieno[3,2-b]pyridine-5-carboxamide] |
| 1370 | 63.7 | O=C(NC1COC1)c1cc(Cc2ccc(-c3cscn3)cc2)c2sccc2n1 [Compound 202, N-(oxetan-3-yl)-7-[(4-thiazol-4-ylphenyl)methyl]thieno[3,2-b]pyridine-5-carboxamide] |
| 2200 | 75.3 | CC(C)(C)N1CC(NC(=O)c2cc(Cc3ccc(-c4cscn4)cc3)c3sccc3n2)C1 [Compound 203, N-(1-tert-butylazetidin-3-yl)-7-[(4-thiazol-4-ylphenyl)methyl]thieno[3,2-b]pyridine-5-carboxamide] |
| 897 | 83.5 | COC1CC(NC(=O)c2cc(Cc3ccc(-c4cscn4)cc3)c3sccc3n2)C1 (stereo not drawn) [Compound 204, N-(3-methoxycyclobutyl)-7-[(4-thiazol-4-ylphenyl)methyl]thieno[3,2-b]pyridine-5-carboxamide] |
| 1720 | 78 | O=C(NC1CC(F)C1)c1cc(Cc2ccc(-c3cscn3)cc2)c2sccc2n1 (stereo not drawn) [Compound 205, N-(3-fluorocyclobutyl)-7-[(4-thiazol-4-ylphenyl)methyl]thieno[3,2-b]pyridine-5-carboxamide] |
| 38.8 | 87 | O=C(N[C@H]1CCC[C@@H]1O)c1cc(Cc2ccc(-c3cscn3)cc2)c2sccc2n1 [Compound 206, N-[(1S,2S)-2-hydroxycyclopentyl]-7-[(4-thiazol-4-ylphenyl)methyl]thieno[3,2-b]pyridine-5-carboxamide] |
| 2970 | 77 | O=C(N[C@@H]1CCOC1)c1cc(Cc2ccc(-c3cscn3)cc2)c2sccc2n1 [Compound 207, N-[(3R)-tetrahydrofuran-3-yl]-7-[(4-thiazol-4-ylphenyl)methyl]thieno[3,2-b]pyridine-5-carboxamide] |
| 1880 | 80.3 | O=C(N[C@H]1CCOC1)c1cc(Cc2ccc(-c3cscn3)cc2)c2sccc2n1 [Compound 208, N-[(3S)-tetrahydrofuran-3-yl]-7-[(4-thiazol-4-ylphenyl)methyl]thieno[3,2-b]pyridine-5-carboxamide] |
| 3890 | 69.7 | O=C(NC1CCCCC1)c1cc(Cc2ccc(-c3cscn3)cc2)c2sccc2n1 [Compound 209, N-cyclohexyl-7-[(4-thiazol-4-ylpheny)methyl]thieno[3,2-b]pyridine-5-carboxamide] |
| 2340 | 82.2 | CN1CCCC(NC(=O)c2cc(Cc3ccc(-c4cscn4)cc3)c3sccc3n2)C1 (stereo not drawn) [Compound 210, N-(1-methyl-3-piperidyl)-7-[(4-thiazol-4-ylphenyl)methyl]thieno[3,2-b]pyridine-5-carboxamide] |
| 1780 | 82.6 | CN1CCC(NC(=O)c2cc(Cc3ccc(-c4cscn4)cc3)c3sccc3n2)CC1 [Compound 211, N-(1-methyl-4-piperidyl)-7-[(4-thiazol-4-ylphenyl)methyl]thieno[3,2-b]pyridine-5-carboxamide] |
| 858 | 73.3 | O=C(N[C@@H]1CCCOC1)c1cc(Cc2ccc(-c3cscn3)cc2)c2sccc2n1 [Compound 212, N-[(3R)-tetrahydropyran-3-yl]-7-[(4-thiazol-4-ylphenyl)methyl]thieno[3,2-b]pyridine-5-carboxamide] |
| 1120 | 61.2 | O=C(N[C@H]1CCCOC1)c1cc(Cc2ccc(-c3cscn3)cc2)c2sccc2n1 [Compound 213, N-([3S)-tetrahydropyran-3-yl]-7-[(4-thiazol-4-ylphenyl)methyl]thieno[3.2-b]pyridine-5-carboxamide] |
